What all share (type): functional
In assay [1] the test system is Heliothis virescens. As to the kind of experiment: Insecticidal activity against tobacco budworm third instar larvae at 19.8 ug/cm2 applied on upper surface of circular leaf disk after 2 days.
The subject of assay [2] is Heliothis virescens. As to the kind of experiment: Insecticidal activity against tobacco budworm third instar larvae at 19.8 ug/cm2 applied on upper surface of circular leaf disk after 6 days.
The subject of assay [3] is Heliothis virescens. In words: Insecticidal activity against tobacco budworm third instar larvae at 6 ug/cm2 applied on upper surface of circular leaf disk after 2 days.
Assay [4] deals with Heliothis virescens. As to the kind of experiment: Insecticidal activity against tobacco budworm third instar larvae at 6 ug/cm2 applied on upper surface of circular leaf disk after 6 days.
Assay [5] concerns Heliothis virescens. In words: Insecticidal activity against tobacco budworm third instar larvae at 1.5 ug/cm2 applied on upper surface of circular leaf disk after 2 days.
Assay [6] concerns Heliothis virescens. As to the kind of experiment: Insecticidal activity against tobacco budworm third instar larvae at 1.5 ug/cm2 applied on upper surface of circular leaf disk after 6 days.
Assay [7] relates to Spodoptera eridania. In words: Insecticidal activity against southern armyworm third instar larvae at 19.8 ug/cm2 applied on upper surface of circular leaf disk after 2 days.
Assay [8] relates to Spodoptera eridania. In words: Insecticidal activity against southern armyworm third instar larvae at 19.8 ug/cm2 applied on upper surface of circular leaf disk after 6 day.
Assay [9] relates to Spodoptera eridania. As to the kind of experiment: Insecticidal activity against southern armyworm third instar larvae at 6 ug/cm2 applied on upper surface of circular leaf disk after 2 days.
For assay [10], the system named is Spodoptera eridania. As to the kind of experiment: Insecticidal activity against southern armyworm third instar larvae at 6 ug/cm2 applied on upper surface of circular leaf disk after 6 days.
The subject of assay [11] is Spodoptera eridania. In words: Insecticidal activity against southern armyworm third instar larvae at 1.5 ug/cm2 applied on upper surface of circular leaf disk after 2 days.
For assay [12], the system named is Spodoptera eridania. In words: Insecticidal activity against southern armyworm third instar larvae at 1.5 ug/cm2 applied on upper surface of circular leaf disk after 6 days.
Assay [13] relates to Epilachna varivestis. As to the kind of experiment: Insecticidal activity against mexican bean beetle third instar larvae at 19.8 ug/cm2 applied on upper surface of circular leaf disk after 2 days.
The test system of assay [14] is Epilachna varivestis. In words: Insecticidal activity against mexican bean beetle third instar larvae at 19.8 ug/cm2 applied on upper surface of circular leaf disk after 6 days.
Assay [15] relates to Epilachna varivestis. As to the kind of experiment: Insecticidal activity against mexican bean beetle third instar larvae at 6 ug/cm2 applied on upper surface of circular leaf disk after 2 days.
The test system of assay [16] is Epilachna varivestis. As to the kind of experiment: Insecticidal activity against mexican bean beetle third instar larvae at 6 ug/cm2 applied on upper surface of circular leaf disk after 6 days.
For assay [17], the system named is Epilachna varivestis. In words: Insecticidal activity against mexican bean beetle third instar larvae at 1.5 ug/cm2 applied on upper surface of circular leaf disk after 2 days.
In assay [18] the test system is Epilachna varivestis. As to the kind of experiment: Insecticidal activity against mexican bean beetle third instar larvae at 1.5 ug/cm2 applied on upper surface of circular leaf disk after 6 days.

Turning to `C=C1[C@@H]([C@@]2(C)[C@@H](OC(C)=O)CC(=O)O[C@](C)(COC(C)=O)[C@@H]2C(=O)OC)[C@@H](OC=O)[C@H](OC(=O)[C@H](O)[C@H](C)CC)[C@@]2(C)[C@H](c3ccoc3)CC(=O)[C@]12O` [PRIEURIANIN], the Activity is listed as 60% with Heliothis virescens [1]; 60% with Heliothis virescens [2]; 30% with Heliothis virescens [3]; 60% with Heliothis virescens [4]; 30% with Heliothis virescens [5]; 0% in the assay with Heliothis virescens [6]. The Activity in the assay on Spodoptera eridania [7] is 30%; in the assay with Spodoptera eridania [8] it was 0%; in the assay on Spodoptera eridania [9], 0%; in the assay on Spodoptera eridania [10], 0%; with Spodoptera eridania [11] it was 0%; in the assay on Spodoptera eridania [12], 0%. Moreover, the Activity was found to be 60% with Epilachna varivestis [13]; 60% in the assay with Epilachna varivestis [14]; 30% with Epilachna varivestis [15]; 30% in the assay with Epilachna varivestis [16]; 0% in the assay on Epilachna varivestis [17]; 0% in the assay with Epilachna varivestis [18].

On to `C=C1[C@@H]([C@@]2(C)C=CC(=O)O[C@]3(C)COC(=O)C[C@H]23)[C@@H](OC=O)[C@H](OC(=O)C(O)C(C)CC)[C@@]2(C)[C@@H](c3ccoc3)C[C@H](OC(C)=O)[C@]12O` (some centres not stated) [ROHITIUKA 7], for which the Activity in the assay on Heliothis virescens [1] was determined as 60%; with Heliothis virescens [2], 60%; in the assay with Heliothis virescens [3], 0%; with Heliothis virescens [4], 0%; in the assay on Heliothis virescens [5], 0%; with Heliothis virescens [6], 0%. The Activity in the assay with Spodoptera eridania [7], in the assay with Spodoptera eridania [8], in the assay with Spodoptera eridania [9], with Spodoptera eridania [10], in the assay on Spodoptera eridania [11] and with Spodoptera eridania [12] was 0% each time. In addition, the Activity with Epilachna varivestis [13], in the assay on Epilachna varivestis [14], in the assay with Epilachna varivestis [15], with Epilachna varivestis [16], in the assay on Epilachna varivestis [17] and with Epilachna varivestis [18] was 0% throughout.

As to `C=C1[C@H]([C@@]2(C)[C@@H](OC(C)=O)CC(=O)O[C@]3(C)COC(=O)C[C@H]23)[C@@H](OC=O)[C@H](OC(=O)CC(C)C)[C@@]2(C)[C@@H](c3ccoc3)CC(=O)[C@@]12O` [ROHITIUKIN], the Activity in the assay on Heliothis virescens [1] worked out at 0%; with Heliothis virescens [2], 30%; with Heliothis virescens [3] it was 0%; with Heliothis virescens [4], 0%; with Heliothis virescens [5], 0%; in the assay with Heliothis virescens [6] it was 0%. Also, the Activity in the assay with Spodoptera eridania [7], in the assay with Spodoptera eridania [8], in the assay with Spodoptera eridania [9], in the assay with Spodoptera eridania [10], in the assay on Spodoptera eridania [11] and in the assay on Spodoptera eridania [12] was 0% each time. Further, the Activity in the assay with Epilachna varivestis [13], in the assay with Epilachna varivestis [14], in the assay on Epilachna varivestis [15], with Epilachna varivestis [16], with Epilachna varivestis [17] and with Epilachna varivestis [18] was 0% throughout.

On to `C/C=C(\C)C(=O)O[C@H]1C[C@@H](OC(C)=O)[C@@]2(C(=O)OC)CO[C@H]3[C@@H](O)[C@@](C)([C@]45O[C@@]4(C)[C@@H]4C[C@H]5O[C@@H]5OC=C[C@@]54O)[C@H]4[C@]1(CO[C@]4(O)C(=O)OC)[C@@H]32` [AZADIRACHTIN A], for which the Activity with Heliothis virescens [1], in the assay on Heliothis virescens [2], with Heliothis virescens [3], in the assay on Heliothis virescens [4], in the assay on Heliothis virescens [5] and in the assay on Heliothis virescens [6] was 60% throughout. The Activity amounted to 90% in the assay on Spodoptera eridania [7]; 90% with Spodoptera eridania [8]; 60% with Spodoptera eridania [9]; 60% with Spodoptera eridania [10]; 60% in the assay with Spodoptera eridania [11]; 30% in the assay with Spodoptera eridania [12]. In addition, the Activity in the assay on Epilachna varivestis [13] is reported as 90%; in the assay on Epilachna varivestis [14], 90%; with Epilachna varivestis [15], 90%; with Epilachna varivestis [16] it was 90%; with Epilachna varivestis [17], 30%; with Epilachna varivestis [18], 60%.

For the origin of these results see ChEMBL document CHEMBL1151662, “Insect Antifeedant Activity of Four Prieurianin-Type Limonoids” (1985).
